Measured values from article PMC7824209, “Bioactive Bis(indole) Alkaloids from a Spongosorites sp. Sponge” (Marine Drugs, 2020).
Values after ≈ are worked out from the molar mass of the structure shown. Like-named read-outs stand apart in the source and are kept apart here.

Legend:
[1] = system: Candida albicans ATCC10231; assay: Antifungal activity MIC; assay type: cell-based
[2] = target: T1, recombinant SrtA from S. aureus ATCC6538p (Staphylococcus aureus, UniProt Q2FV99); assay: SrtA inhibition assay (fluorescence, dabcyl-LPETG-edans cleavage); assay type: biochemical
T1 construct: made in house; host or cells: Escherichia coli
Text: The same bioassays were pursued with the new compounds and the known congeners, with a particular emphasis on SrtA inhibition. The rationale of SrtA inhibition is that this transpeptidase decorates the surfaces of Gram-positive bacteria with a diverse array of proteins that enable microbes to effectively interact with their environment, and it is not required for bacterial growth or viability. It is thus considered a promising target for the development of anti-virulence drugs aimed at interfering with important virulence mechanisms such as adhesion to host tissues. To assess the SrtA inhibitory activity of compounds 1–14, recombinant SrtA derived from S. aureus ATCC6538p was purified from Escherichia coli extracts using metal chelate-affinity chromatography. The enzyme activity was determined from the fluorescence intensity upon cleavage of a peptide substrate containing the LPETG motif.
Before evaluating the SrtA inhibitory activity of the test compounds, recombinant SrtA from S. aureus ATCC6538p was prepared according to methods described in a previous paper. The SrtA inhibitory activity of the test compounds was determined according to previously described methods with minor modifications. The reaction was carried out with 100 μL buffer (50 mM Tris-HCl, 5 mM CaCl2, and 150 mM NaCl, pH 7.5), 7.5 µM synthetic peptide dabcyl-LPETG-edans (AnaSpec, Inc., Fremont, CA, USA), 7.5 µM purified SrtA, and test samples at various concentrations. […] The SrtA inhibition assay was conducted at 37 °C for 1 h, and inhibition was quantified fluorometrically using a microplate reader (FLx800, BioTek Instruments, Winooski, VT, USA) at excitation and emission wavelengths of 350 and 495 nm, respectively. Berberine chloride and triphasiol were used as reference inhibitors of SrtA.

[3] = system: Trichophyton mentagrophytes IFM40996; assay: Antifungal activity MIC; assay type: cell-based
[4] = system: Salmonella enterica ATCC14028; assay: Antibacterial activity MIC; assay type: cell-based; settings: ATCC14028, read-out: Antibacterial Activity MIC, Salmonella enterica
[5] = system: Klebsiella pneumoniae ATCC10031; assay: Antibacterial activity MIC; assay type: cell-based; settings: ATCC10031, read-out: Antibacterial Activity MIC, Klebsiella pneumonia
[6] = system: Escherichia coli ATCC25922; assay: Antibacterial activity MIC; assay type: cell-based; settings: Gram-negative; for MIC: Escherichia coli, read-out: Antibacterial Activity MIC, E. coli
S. aureus strain Newman = assay: Antibacterial activity MIC; assay type: cell-based; settings: Staphylococcus aureus, read-out: Antibacterial Activity MIC, S. aureus
[7] = system: Aspergillus fumigatus HIC6094; assay: Antifungal activity MIC; assay type: cell-based
[8] = system: Enterococcus faecalis ATCC19433; assay: Antibacterial activity MIC; assay type: cell-based; settings: ATCC19433, read-out: Antibacterial Activity MIC, Enterococcus faecalis
A549 cell line = assay: MTT cytotoxicity assay; assay type: cell-based; settings: Homo sapiens
Method: (§1) An MTT assay was performed as previously described to determine the cytotoxicity against A549 and K562 cell lines. These cancer cell lines were purchased from the Korean Cell Line Bank (KCLB), Seoul, Republic of Korea.

K562 cell line = assay: MTT cytotoxicity assay; assay type: cell-based; settings: Homo sapiens
Method: as §1

[9] = system: Trichophyton rubrum NBRC9185; assay: Antifungal activity MIC; assay type: cell-based
[10] = system: Enterococcus faecium ATCC19434; assay: Antibacterial activity MIC; assay type: cell-based; settings: ATCC19434, read-out: Antibacterial Activity MIC, Enterococcus faecium
[11] = MTT assay, A549, read-out: IC50 A549
[12] = MTT assay, K562, read-out: IC50 K562

T1 sequence (Q2FV99 whole entry): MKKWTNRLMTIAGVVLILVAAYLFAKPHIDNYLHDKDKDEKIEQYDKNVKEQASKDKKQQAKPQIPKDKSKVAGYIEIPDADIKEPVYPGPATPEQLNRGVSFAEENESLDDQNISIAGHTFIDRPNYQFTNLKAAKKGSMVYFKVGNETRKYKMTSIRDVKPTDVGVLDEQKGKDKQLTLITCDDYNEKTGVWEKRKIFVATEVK

| SMILES | MIC [1] | IC50 [2] | MIC [3] | MIC ([4]; Gram-negative) | MIC ([5]; Gram-negative) | MIC [6] | MIC (S. aureus strain Newman; Gram-positive, strain Newman) | MIC [7] | MIC ([8]; Gram-positive) | IC50 (A549 cell line; [11]) | IC50 (K562 cell line; [12]) | MIC [9] | MIC ([10]; Gram-positive) | also measured |
| --- | --- | --- | --- | --- | --- | --- | --- | --- | --- | --- | --- | --- | --- | --- |
| O=C1NC(c2c[nH]c3cc(Br)ccc23)CN=C1c1c[nH]c2ccccc12 (stereo in doubt) [Compound 11, (R)-6′′-debromohamacanthin A] | > 128 µg/mL | 47.5 µM | > 128 µg/mL | 16 µg/mL (≈ 39.3 µM) | 8 µg/mL (≈ 19.6 µM) | > 128 µg/mL | 8 µg/mL (≈ 19.6 µM) | > 128 µg/mL | 32 µg/mL (≈ 78.6 µM) | 39.6 µM | > 100 µM | > 128 µg/mL | 32 µg/mL (≈ 78.6 µM) | Antibacterial Activity MIC, E. coli [6]: >128 µg/mL |
| CO[C@@]1(C(=O)c2c[nH]c3cc(O)ccc23)N=C(c2c[nH]c3ccccc23)C(=O)N1 [Compound 1, spongosoritin A] | > 128 µg/mL | > 330 µM | > 128 µg/mL | > 128 µg/mL | > 128 µg/mL | > 128 µg/mL | > 128 µg/mL | > 128 µg/mL | > 128 µg/mL | 77.3 µM | 24.2 µM | > 128 µg/mL | > 128 µg/mL | – |
| CO[C@@]1(C(=O)c2c[nH]c3ccccc23)N=C(c2c[nH]c3ccccc23)C(=O)N1 [Compound 2, spongosoritin B] | > 128 µg/mL | 62.7 µM | > 128 µg/mL | 128 µg/mL (≈ 344 µM) | 128 µg/mL (≈ 344 µM) | > 128 µg/mL | 64 µg/mL (≈ 172 µM) | > 128 µg/mL | > 128 µg/mL | 55.7 µM | 28.5 µM | > 128 µg/mL | > 128 µg/mL | – |
| CO[C@@]1(C(=O)c2c[nH]c3ccccc23)N=C(c2c[nH]c3cc(Br)ccc23)C(=O)N1 [Compound 3, spongosoritin C] | > 128 µg/mL | 43.9 µM | > 128 µg/mL | 64 µg/mL (≈ 142 µM) | > 128 µg/mL | > 128 µg/mL | 32 µg/mL (≈ 70.9 µM) | > 128 µg/mL | 128 µg/mL (≈ 284 µM) | 61.2 µM | 37.7 µM | > 128 µg/mL | > 128 µg/mL | – |
| CO[C@@]1(C(=O)c2c[nH]c3cc(O)ccc23)N=C(c2c[nH]c3cc(Br)ccc23)C(=O)N1 [Compound 4, spongosoritin D] | > 128 µg/mL | > 275 µM | > 128 µg/mL | 64 µg/mL (≈ 137 µM) | > 128 µg/mL | > 128 µg/mL | 16 µg/mL (≈ 34.2 µM) | > 128 µg/mL | 128 µg/mL (≈ 274 µM) | 70.9 µM | 54.2 µM | > 128 µg/mL | 128 µg/mL (≈ 274 µM) | – |
| O=C(NCC(=O)c1c[nH]c2ccccc12)NC(=O)c1c[nH]c2cc(O)ccc12 [Compound 5, spongocarbamide A] | > 128 µg/mL | 79.4 µM | > 128 µg/mL | > 128 µg/mL | > 128 µg/mL | > 128 µg/mL | > 128 µg/mL | > 128 µg/mL | > 128 µg/mL | > 100 µM | 92.8 µM | > 128 µg/mL | > 128 µg/mL | – |
| O=C(NCC(=O)c1c[nH]c2cc(Br)ccc12)NC(=O)c1c[nH]c2cc(O)ccc12 [Compound 6, spongocarbamide B] | > 128 µg/mL | 52.4 µM | > 128 µg/mL | 128 µg/mL (≈ 281 µM) | > 128 µg/mL | > 128 µg/mL | 64 µg/mL (≈ 141 µM) | > 128 µg/mL | > 128 µg/mL | > 100 µM | > 100 µM | > 128 µg/mL | > 128 µg/mL | – |
| O=C(c1nc(-c2c[nH]c3ccccc23)c[nH]1)c1c[nH]c2cc(O)ccc12 [Compound 7, topsentin] | > 128 µg/mL | > 374 µM | > 128 µg/mL | 64 µg/mL (≈ 187 µM) | 64 µg/mL (≈ 187 µM) | > 128 µg/mL | 32 µg/mL (≈ 93.5 µM) | > 128 µg/mL | 64 µg/mL (≈ 187 µM) | 25.3 µM | 15.3 µM | > 128 µg/mL | 64 µg/mL (≈ 187 µM) | Antibacterial Activity MIC, E. coli [6]: >128 µg/mL |
| O=C(c1ncc(-c2c[nH]c3ccccc23)[nH]1)c1c[nH]c2cc(Br)ccc12 [Compound 8, isobromodeoxytopsentin] | – | 41.3 µM | – | – | – | – | – | – | – | – | – | – | – | – |
| O=C(c1ncc(-c2c[nH]c3cc(Br)ccc23)[nH]1)c1c[nH]c2ccccc12 [Compound 9, bromodeoxytopsentin] | – | 34 µM | – | – | – | – | – | – | – | – | – | – | – | – |
| O=C(c1nc(-c2c[nH]c3cc(Br)ccc23)c[nH]1)c1c[nH]c2cc(O)ccc12 [Compound 10, bromotopsentin] | > 128 µg/mL | 53.2 µM | > 128 µg/mL | 16 µg/mL (≈ 38 µM) | 64 µg/mL (≈ 152 µM) | > 128 µg/mL | 8 µg/mL (≈ 19 µM) | > 128 µg/mL | 32 µg/mL (≈ 76 µM) | 38.9 µM | 43.2 µM | > 128 µg/mL | 16 µg/mL (≈ 38 µM) | Antibacterial Activity MIC, E. coli [6]: >128 µg/mL |
| O=C1NC[C@H](c2c[nH]c3cc(Br)ccc23)N[C@H]1c1c[nH]c2cc(Br)ccc12 [Compound 12, (3S, 5R)-6-dibromo-trans-3,4-dihydrohamacanthin B] | > 128 µg/mL | > 263 µM | > 128 µg/mL | – | – | > 128 µg/mL | – | > 128 µg/mL | – | – | – | > 128 µg/mL | – | MIC [4]: 8 µg/mL (≈ 16.4 µM); MIC [5]: 8 µg/mL (≈ 16.4 µM); Antibacterial Activity MIC, E. coli [6]: >128 µg/mL; MIC (S. aureus strain Newman; NEWMAN): 8 µg/mL (≈ 16.4 µM); MIC [8]: 16 µg/mL (≈ 32.8 µM); IC50 (A549 cell line; A549, read-out: IC50 A549): 34.3 µM; IC50 (K562 cell line; K562, read-out: IC50 K562): 9.7 µM; MIC [10]: > 128 µg/mL |
| COC(=O)c1c[nH]c2ccccc12 [Compound 13, 3-carbomethoxyindole] | > 128 µg/mL | 164 µM | > 128 µg/mL | > 128 µg/mL | > 128 µg/mL | > 128 µg/mL | 128 µg/mL (≈ 731 µM) | > 128 µg/mL | > 128 µg/mL | 59.2 µM | > 100 µM | > 128 µg/mL | > 128 µg/mL | – |
| COC(=O)c1c[nH]c2cc(O)ccc12 [Compound 14, 6-hydroxy-3-carbomethoxyindole] | > 128 µg/mL | 191 µM | > 128 µg/mL | > 128 µg/mL | > 128 µg/mL | > 128 µg/mL | 128 µg/mL (≈ 670 µM) | > 128 µg/mL | > 128 µg/mL | 66.8 µM | > 100 µM | > 128 µg/mL | > 128 µg/mL | – |
| CC1(C)S[C@@H]2[C@H](NC(=O)[C@H](N)c3ccccc3)C(=O)N2[C@H]1C(=O)O [ampicillin, reference compound] | – | – | – | 0.25 µg/mL (≈ 0.715 µM) | – | 8 µg/mL (≈ 22.9 µM) | 0.13 µg/mL (≈ 0.372 µM) | – | 0.5 µg/mL (≈ 1.43 µM) | – | – | – | 1 µg/mL (≈ 2.86 µM) | – |
| COc1ccc2cc3[n+](cc2c1OC)CCc1cc2c(cc1-3)OCO2 [berberine chloride, reference compound] | – | 87.4 µM | – | – | – | – | – | – | – | – | – | – | – | – |
| COc1cccc2c1C(=O)c1c(O)c3c(c(O)c1C2=O)C[C@@](O)(C(=O)CO)C[C@@H]3O[C@H]1C[C@H](N)[C@H](O)[C@H](C)O1 [doxorubicin, reference compound] | – | – | – | – | – | – | – | – | – | 0.64 µM | 0.92 µM | – | – | – |
| CN(C)[C@@H]1C(O)=C(C(N)=O)C(=O)[C@@]2(O)C(O)=C3C(=O)c4c(O)cccc4[C@@](C)(O)[C@H]3C[C@@H]12 [tetracycline, reference compound] | – | – | – | – | 0.25 µg/mL (≈ 0.563 µM) | – | – | – | – | – | – | – | – | – |
| CC(C)C(=O)Cc1c(OCC(O)C(C)(C)O)ccc2ccc(=O)oc12 (stereo not shown) [triphasiol, reference compound] | – | – | – | – | – | – | – | – | – | – | – | – | – | IC50 ([2]; 7.5 µM SrtA, 7.5 µM dabcyl-LPETG-edans, 37 °C, 1 h, pH 7.5, read-out: IC50 Srt A): 37.9 µM |
